How the values were obtained:
rat [1] = conditions: Subchronic oral toxicity in rodents, sprague dawley, Gavage/Intubation, dose end: 91 day, group: systemic
dog [2] = conditions: Subchronic oral toxicity in nonrodent, beagle, Gavage/Intubation, dose end: 91 day, group: systemic, systemic / organ weight / liver / absolute + systemic / clinical chemistry / alanine aminotransferase (alt/sgpt) / alanine aminotransferase…
primate [3] = conditions: Sub-acute repeat dose toxicity; Oral; Gavage/Intubation; dose end: 14 day; group: systemic; systemic / clinical chemistry / albumin / albumin + systemic / hematology / fibrinogen / fibrinogen + systemic / hematology / neutrophils / …
primate [4] = conditions: Sub-acute repeat dose toxicity, Oral, Gavage/Intubation, dose end: 14 day, group: systemic
mouse [5] = conditions: Sub-acute repeat dose toxicity, Oral, Gavage/Intubation, dose end: 14 day, group: systemic
rat [6] = conditions: Sub-acute repeat dose toxicity, sprague dawley, Oral, Gavage/Intubation, dose end: 14 day, group: systemic
primate [7] = conditions: Sub-acute repeat dose toxicity; Oral; Gavage/Intubation; dose end: 7 day; group: systemic; systemic / pathology gross / stomach / erosion + systemic / pathology gross / stomach / foci + systemic / pathology gross / stomach / lesion…
rat [8] = conditions: Carcinogenicity; fischer; Oral; Feed; dose end: 103 week; group: systemic; systemic / in life observation / body weight / body weight
mouse [9] = conditions: Carcinogenicity, b6c3f1, Oral, Feed, dose end: 103 week, group: systemic
rat [10] = conditions: Subchronic oral toxicity in rodents, fischer, Feed, dose end: 13 week, group: systemic, systemic / pathology microscopic / kidney / inflammation
mouse [11] = conditions: Subchronic oral toxicity in rodents, b6c3f1, Feed, dose end: 13 week, group: systemic
rat [12] = conditions: Prenatal developmental toxicity study, other, Oral, Gavage/Intubation, dose end: 15 GD
dog [13] = conditions: Subchronic oral toxicity in nonrodent, beagle, Feed, dose end: 14 week, group: systemic
[14] = systemic / clinical chemistry / [other] / [other] + systemic / clinical chemistry / alanine aminotransferase (alt/sgpt) / alanine …
[15] = systemic / clinical chemistry / alanine aminotransferase (alt/sgpt) / alanine aminotransferase (alt/sgpt) + systemic / clinical chemistry / …
[16] = systemic / clinical chemistry / cytochrome p450, nos / cytochrome p450, nos + systemic / in life observation / clinical signs / abnormal …
[17] = systemic / in life observation / food consumption / food consumption + systemic / clinical chemistry / cytochrome p450, nos / cytochrome …
[18] = systemic / clinical chemistry / [other] / [other] + systemic / clinical chemistry / 5' nucleotidase / 5' nucleotidase + systemic / clinical …
[19] = systemic / organ weight / liver / absolute + systemic / in life observation / clinical signs / salivation
[20] = systemic / in life observation / body weight / body weight
[21] = systemic / in life observation / body weight / body weight + systemic / in life observation / mortality / mortality
[22] = systemic / in life observation / body weight / body weight gain + systemic / pathology microscopic / kidney / inflammation + systemic / …
[23] = group: developmental, developmental / developmental malformation / bone / fused
[24] = group: developmental, developmental / developmental malformation / bone / fused + developmental / developmental malformation / bone / incomplete ossification + …
[25] = group: maternal, systemic / in life observation / body weight / body weight gain + systemic / in life observation / food consumption / food consumption
[26] = systemic / in life observation / food consumption / food efficiency + systemic / in life observation / body weight / body weight gain + …

Compound: CC(=O)NCCN1CCc2cc(NC(=O)c3ccccc3-c3ccc(C(F)(F)F)cc3)ccc2C1
- LOAEL (rat [1]; [14]): > 50 mg/kg/day
- NOAEL (rat [1]; [14]): ≥ 50 mg/kg/day
- LEL (rat [1]; [15]): 1 mg/kg/day
- NEL (rat [1]; [15]): < 1 mg/kg/day
- LEL (dog [2]): 1 mg/kg/day
- LOAEL (dog [2]): > 5 mg/kg/day
- NEL (dog [2]): < 1 mg/kg/day
- NOAEL (dog [2]): ≥ 5 mg/kg/day

Compound: CC(C)c1cccc(C(C)C)c1NC(=O)[N-]S(=O)(=O)c1cc(C(C)(C)O)co1.[Na+]
- LEL (primate [3]): 100 mg/kg/day
- LOAEL (primate [3]): > 100 mg/kg/day
- NEL (primate [3]): < 100 mg/kg/day
- NOAEL (primate [3]): ≥ 100 mg/kg/day
- LEL (primate [4]; [16]): 300 mg/kg/day
- NEL (primate [4]; [16]): 100 mg/kg/day
- LOAEL (primate [4]; [17]): > 500 mg/kg/day
- NOAEL (primate [4]; [17]): ≥ 500 mg/kg/day
- LOAEL (mouse [5]; [18]): > 300 mg/kg/day
- NEL (mouse [5]; [18]): 75 mg/kg/day
- NOAEL (mouse [5]; [18]): ≥ 300 mg/kg/day
- LEL (mouse [5]; systemic / in life observation / body weight / body weight gain + systemic / organ weight / liver / absolute): 150 mg/kg/day
- NEL (rat [6]; systemic / organ weight / liver / absolute): 20 mg/kg/day
- LEL (rat [6]; [19]): 100 mg/kg/day
- LOAEL (rat [6]; [19]): > 300 mg/kg/day
- NOAEL (rat [6]; [19]): ≥ 300 mg/kg/day
- LEL (primate [7]): 300 mg/kg/day
- LOAEL (primate [7]): > 300 mg/kg/day
- NEL (primate [7]): < 300 mg/kg/day
- NOAEL (primate [7]): ≥ 300 mg/kg/day

Compound: CC(C)[C@@H]1CC[C@@H](C)C[C@H]1O (racemic) [dl-Menthol]
- LEL (rat [8]): 375 mg/kg/day
- LOAEL (rat [8]): > 18700 mg/kg/day
- NEL (rat [8]): < 375 mg/kg/day
- NOAEL (rat [8]): ≥ 18700 mg/kg/day
- LEL (mouse [9]; [20]): 300 mg/kg/day
- NEL (mouse [9]; [20]): < 300 mg/kg/day
- LOAEL (mouse [9]; [21]): > 600 mg/kg/day
- NOAEL (mouse [9]; [21]): ≥ 600 mg/kg/day
- LEL (rat [10]): 750 mg/kg/day
- LOAEL (rat [10]): > 750 mg/kg/day
- NEL (rat [10]): 375 mg/kg/day
- NOAEL (rat [10]): ≥ 750 mg/kg/day
- LOAEL (mouse [11]; [22]): > 2250 mg/kg/day
- NEL (mouse [11]; [22]): 562 mg/kg/day
- NOAEL (mouse [11]; [22]): ≥ 2250 mg/kg/day
- LEL (mouse [11]; systemic / pathology microscopic / kidney / inflammation + systemic / pathology microscopic / lymph node / hyperplasia): 1120 mg/kg/day

Compound: CCNc1nc(N)nc(Cl)n1 [Deisopropylatrazine]
- LEL (rat [12]; [23]): 25 mg/kg/day
- LOAEL (rat [12]; [23]): 25 mg/kg/day
- NEL (rat [12]; [24]): 5 mg/kg/day
- NOAEL (rat [12]; [24]): 5 mg/kg/day
- LEL (rat [12]; [25]): 25 mg/kg/day
- LOAEL (rat [12]; [25]): 25 mg/kg/day
- NEL (rat [12]; [25]): 5 mg/kg/day
- NOAEL (rat [12]; [25]): 5 mg/kg/day
- LOAEL (dog [13]; systemic / in life observation / food consumption / food efficiency): 18 mg/kg/day
- LEL (dog [13]; [26]): 18 mg/kg/day
- NEL (dog [13]; [26]): 3.8 mg/kg/day
- NOAEL (dog [13]; [26]): 3.8 mg/kg/day

From EPA's ToxRefDB 2
